Source: the supplement of paper PMC10307832

Experiments:
Assay in all cases: relative viability (nuclei count vs DMSO), 5 days (fraction); higher = more cells survive
AZD5582 + Foretinib = compound: C[C@@H](C(=O)N[C@@H](C1CCCCC1)C(=O)N2CCC[C@H]2C(=O)N[C@@H]3[C@@H](CC4=CC=CC=C34)OCC#CC#CCO[C@@H]5CC6=CC=CC=C6[C@@H]5NC(=O)[C@@H]7CCCN7C(=O)[C@H](C8CCCCC8)NC(=O)[C@H](C)NC)NC [AZD5582] + COc1cc2c(Oc3ccc(NC(=O)C4(C(=O)Nc5ccc(F)cc5)CC4)cc3F)ccnc2cc1OCCCN1CCOCC1 [Foretinib] (partner 0.25 µM)
How it was run: (§1)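 A single step with final 0.05% Triton X-100, 1% formaldehyde and 1 ug/ml Hoechst fixed the cells and stained nuclei 5 days after treatment. Lung cancer cell lines in 1536-well plates had been treated by pin tool the day after seeding with one drug alone or a fixed anchor-drug dose plus five library-drug doses (not always all listed) in √10 steps, and nuclei were counted on 4× images. Relative viability is the ratio of nuclei in treated wells to nuclei in vehicle wells, taken as the median of duplicate plates.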

AZD5582 + Lapatinib = compound: C[C@@H](C(=O)N[C@@H](C1CCCCC1)C(=O)N2CCC[C@H]2C(=O)N[C@@H]3[C@@H](CC4=CC=CC=C34)OCC#CC#CCO[C@@H]5CC6=CC=CC=C6[C@@H]5NC(=O)[C@@H]7CCCN7C(=O)[C@H](C8CCCCC8)NC(=O)[C@H](C)NC)NC [AZD5582] + CS(=O)(=O)CCNCc1ccc(-c2ccc3ncnc(Nc4ccc(OCc5cccc(F)c5)c(Cl)c4)c3c2)o1 [Lapatinib] (partner 2 µM)
How it was run: as §1

Temozolomide + OSI-027 = compound: Cn1nnc2c(C(N)=O)ncn2c1=O [Temozolomide] + COc1cccc2cc(-c3nc([C@H]4CC[C@H](C(=O)O)CC4)n4ncnc(N)c34)[nH]c12 [OSI-027] (partner 0.5 µM)
How it was run: as §1

Temozolomide + Olaparib = compound: Cn1nnc2c(C(N)=O)ncn2c1=O [Temozolomide] + O=C(c1cc(Cc2n[nH]c(=O)c3ccccc23)ccc1F)N1CCN(C(=O)C2CC2)CC1 [Olaparib] (partner 8 µM)
How it was run: as §1

Row | Cell Line | relative viability (AZD5582 + Foretinib; first compound 0.001581 µM) | relative viability (AZD5582 + Foretinib; first compound 0.005 µM) | relative viability (AZD5582 + Foretinib; first compound 0.01581 µM) | relative viability (AZD5582 + Foretinib; first compound 0.05 µM) | relative viability (AZD5582 + Lapatinib; first compound 0.001581 µM) | relative viability (AZD5582 + Lapatinib; first compound 0.005 µM) | relative viability (AZD5582 + Lapatinib; first compound 0.01581 µM) | relative viability (AZD5582 + Lapatinib; first compound 0.05 µM) | relative viability (Temozolomide + OSI-027; first compound 0.6325 µM) | relative viability (Temozolomide + OSI-027; first compound 2 µM) | relative viability (Temozolomide + OSI-027; first compound 6.325 µM) | relative viability (Temozolomide + OSI-027; first compound 20 µM) | relative viability (Temozolomide + Olaparib; first compound 0.6325 µM) | relative viability (Temozolomide + Olaparib; first compound 2 µM) | relative viability (Temozolomide + Olaparib; first compound 6.325 µM) | relative viability (Temozolomide + Olaparib; first compound 20 µM) | relative viability (Temozolomide + OSI-027; first compound 0.2 µM) | relative viability (Temozolomide + Olaparib; first compound 0.2 µM)
1 | NCI-H2170 | 1.04 | 1.01 | 1 | 1.09 | 0.278 | 0.288 | 0.293 | 0.274 | 0.825 | 0.875 | 0.575 | 0.34 | 0.514 | 0.466 | 0.245 | 0.137 | – | –
2 | NCI-H2228 | 0.843 | 1 | 0.788 | 0.472 | 0.614 | 0.739 | 1.05 | 0.34 | 0.56 | 0.602 | 0.583 | 0.727 | 0.671 | 0.363 | 0.697 | 0.479 | 0.557 | 0.95
3 | NCI-H2347 | 0.688 | 0.736 | 0.557 | 0.794 | 0.882 | 0.944 | 0.818 | 0.712 | 0.428 | 0.501 | 0.376 | 0.432 | 0.538 | 0.614 | 0.603 | 0.472 | 0.338 | 0.59
4 | NCI-H2405 | 1 | 1.07 | 0.987 | 1.06 | 1.11 | 1.21 | – | 1.01 | 0.618 | 0.646 | 0.619 | 0.654 | 0.831 | 0.998 | 0.832 | 0.492 | 0.569 | 0.896
5 | NCI-H3122 | 0.977 | 0.994 | 0.933 | 0.602 | 0.966 | 1.1 | 1.05 | 0.413 | 0.995 | 1.33 | 0.949 | 1.03 | 0.533 | 0.654 | 0.51 | 0.334 | 0.404 | 0.631
6 | PC-3 [JPC-3] | 0.866 | 0.809 | 0.96 | 0.488 | 0.423 | 0.411 | 0.448 | 0.26 | 0.78 | 0.843 | 0.749 | 0.269 | 1.16 | 1.12 | 0.988 | 0.435 | 0.738 | 0.909
7 | PC-14 | 0.903 | 1.06 | 0.938 | 0.945 | 0.301 | 0.391 | 0.33 | 0.223 | 0.811 | 0.855 | 0.741 | 0.159 | 0.371 | 0.228 | 0.171 | 0.153 | 1.12 | 0.279
8 | RERF-LC-KJ | 0.758 | 0.836 | 0.855 | 0.924 | 0.732 | 0.748 | 0.8 | 0.83 | 0.6 | 0.597 | 0.53 | 0.554 | 1.05 | 0.998 | 0.846 | 0.799 | 0.495 | 0.975
9 | SK-LU-1 | 0.794 | 0.772 | 0.843 | 0.472 | 0.645 | 0.639 | 0.859 | 0.317 | 0.341 | 0.334 | 0.24 | 0.272 | 0.446 | 0.416 | 0.292 | 0.203 | 0.408 | 0.428
10 | SK-MES-1 | 0.878 | 1.29 | 0.967 | 1.24 | 0.492 | 0.648 | 0.455 | 0.571 | 0.624 | 0.642 | 0.591 | 0.65 | 0.632 | 0.648 | 0.532 | 0.414 | 0.694 | 0.824
11 | SW 1573 | 0.736 | 1 | 0.885 | 0.853 | 0.954 | 1.28 | 1.24 | 1.09 | 0.66 | 0.734 | 0.608 | 0.721 | 0.534 | 0.424 | 0.302 | 0.236 | 0.672 | 0.585
12 | UMC-11 | 0.995 | 1.12 | 1.03 | 1.05 | 0.89 | 0.976 | 0.851 | 1.01 | 0.469 | 0.566 | 0.467 | 0.447 | 0.612 | 0.382 | 0.306 | 0.265 | 0.554 | 0.386
